Measured values as given in patent publication US6376510B1, “Neuromuscular relaxants” (Newlaxant LLC, priority 1997, dated 2002).
Like-named read-outs stand apart in the source and are kept apart here.

What was measured:
[1] = test system: anesthetized rats (evoked responses of anterior tibial muscle); experiment: In vivo neuromuscular block and cardiovascular side effects, anesthetized rat (Example 8, Table 3); details: for RI (recovery index): spontaneous recovery, 25-75% neuromuscular response; for Onset: time to 80-85% neuromuscular block
Summary of the method: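 Pentobarbital-anesthetized (i.p.), ventilated adult male rats given saline-dissolved agents i.v.; anterior tibial EMG responses to supramaximal single or train-of-four sciatic/peroneal stimuli, plus 0.1 or 1 Hz stimulation. Doses for 50%, 80%, 90% block derived. Onset: minutes to 80-85% block; RI: 25-75% spontaneous recovery; vagal block, heart rate and blood pressure changes (%) at 80-85% blocking dose.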

[2] = test system: anesthetized cats (evoked responses of anterior tibial muscle); experiment: animal or person; details: for RI (recovery index): spontaneous recovery, 25-75% neuromuscular response; for Onset: time to 80-85% neuromuscular block
Excerpt: a) Adult, male albino rats were anesthetized with pentobarbital injected intraperitoneally. The trachea was cannulated for artificial respiration via a small animal respirator. The carotid artery was cannulated for recording blood pressure via a transducer and heart rate by a cardiotachograph on a polygraph. One external jugular vein was cannulated for i.v. drug administration. Neuromuscular function was monitored by electromyography, recording evoked responses from the anterior tibial muscle as a result of supramaximal nerve stimuli consisting of single or “train-of-four” rectangular pulses of 0.1-0.2 msec duration every 10-12 seconds, delivered to the sciatic or common peroneal nerve by a laboratory nerve stimulator. Another mode of stimulation included repeated single stimuli delivered at 0.1 Hz or 1 Hz. […] The agents were dissolved in physiologic saline and injected intravenously at appropriate time intervals. The intensity, onset, and duration of neuromuscular block and its type were determined with each agent. Through administering several doses, the doses corresponding to 50%, 80% and 90% neuromuscular block were determined. All agents were compared with selected standard neuromuscular blocking compounds, e.g. succinylcholine, pancuronium, mivacurium, or rocuronium.
(§1) Onset=time in minutes to 80-85% neuromuscular block.
(§2) RI=recovery index, minutes, spontaneous recovery, 25-75% neuromuscular response.
(§3) VB=vagal block, %, at 80-85% neuromuscular blocking dose.
ΔHR=change in heart rate, %, at 80-85% neuromuscular blocking dose.
ΔBP=change in arterial blood pressure, %, at 80-85% neuromuscular blocking dose.
b) Adult cats were anesthetized with a mixture of 70 mg/kg alpha chloralose and 0.5 g/kg ethylurethane intraperitoneally. One thigh was fixed in a vertical position by means of a pin at the lower end of the femur. Needle electrodes were placed on the sciatic or the common peroneal nerve. A tendon of the anterior tibial muscle was attached to a force transducer and the muscle responses evoked, as described under a), were recorded. Both electromyographic and mechanomyographic responses can be quantified. Blood pressure and heart rate changes were recorded from appropriately cannulated arteries via a blood pressure transducer and cardiotachograph.

[3] = test system: anesthetized juvenile pigs; experiment: animal or person; assay type: in vivo; details: pig; for ED50: intravenous dose causing 50% neuromuscular block; for RI (recovery index): spontaneous recovery, 25-75% neuromuscular response; for Onset: time to 80-85% neuromuscular block
Summary of the method: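 Electromyographic and mechanomyographic responses quantified. Monkeys sedated with intramuscular ketamine, then general anesthesia with intravenous pentobarbital and propofol; juvenile pigs induced with inhaled halothane.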

anesthetized monkeys = experiment: In vivo neuromuscular block and cardiovascular side effects, monkey (Example 8, Table 6); details: for ED50: intravenous dose causing 50% neuromuscular block; for RI (recovery index): spontaneous recovery, 25-75% neuromuscular response; for Onset: time to 80-85% neuromuscular block
Excerpt: Both electromyographic and mechanomyographic responses can be quantified.
The techniques described under a) and b) were employed in other species as needed with the modification that juvenile pigs were initially anesthetized with inhalation of halothane (Table 5) and monkeys were initially sedated with intramuscular ketamine injections prior to inducing and maintaining general anesthesia using pentobarbital and propofol administered intravenously (Table 6).

rabbits = experiment: In vivo neuromuscular block and cardiovascular side effects, rabbit (Example 8, Table 7); details: for ED50: intravenous dose causing 50% neuromuscular block; for RI (recovery index): spontaneous recovery, 25-75% neuromuscular response; for Onset: time to 80-85% neuromuscular block
dogs = experiment: animal or person; assay type: in vivo; details: dog
[4] = test system: anesthetized rats (evoked responses of anterior tibial muscle); experiment: Muscle relaxant (neuromuscular blocking) properties, anesthetized rat (Example 9, Table 9); details: rat; for ED50: intravenous dose causing 50% neuromuscular block, spread in brackets; for RI (recovery index): spontaneous recovery, 25-75% neuromuscular response; for Onset: time to 80-85% neuromuscular block
Excerpt: The data on muscle relaxant action were obtained on anesthetized rats, and when indicated, also on juvenile pigs
Adult, male albino rats were anesthetized with pentobarbital injected intraperitoneally. Juvenile, Duroc pigs 9-12 kg body weight were anesthetized with Chloralose Nembutal sodium mixture intraperitoneally after deep sedation with inhaled halothane. The trachea was cannulated for artificial respiration via a small animal respirator. The carotid artery was cannulated for recording blood pressure via a transducer and heart rate by a cardiotachograph on a polygraph. One external jugular vein was cannulated for i.v. drug administration. Neuromuscular function was monitored by electromyography, recording evoked responses from the anterior tibial muscle as a result of supramaximal nerve stimuli consisting of single or “train-of-four” rectangular pulses of 0.1-0.2 msec duration every 10-12 seconds, delivered to the sciatic or common peroneal nerve by a laboratory nerve stimulator. Another mode of stimulation included repeated single stimuli delivered at 0.1 Hz or 1 Hz. […] The agents were dissolved in physiologic saline and injected intravenously at appropriate time intervals. The intensity, onset, and duration of neuromuscular block and its type were determined with each agent. Through administering several doses, the doses corresponding to 50%, 80% and 90% neuromuscular block were determined. All agents were compared with selected standard neuromuscular blocking compounds, e.g., rocuronium.
as §1, §2, §3
HR=change in heart rate, %, at 80-85% neuromuscular blocking dose.
BP=change in arterial blood pressure, %, at 80-85% neuromuscular blocking dose.

[5] = rat, at 80-85% neuromuscular blocking dose
[6] = cat, at 80-85% neuromuscular blocking dose
[7] = at 80-85% neuromuscular blocking dose

## CC(=O)Oc1ccc(C[N+]2(C)[C@@H]3CC[C@H]2C[C@@H](OC(=O)C2CCC2C(=O)O[C@H]2C[C@H]4CC[C@@H](C2)[N+]4(C)Cc2ccc(OC(C)=O)c(OC(C)=O)c2)C3)cc1OC(C)=O.[Br-].[Br-] (stereo partly drawn) [bis[N-(3,4-diacetoxybenzyl)tropanium-3α-yl]cyclobutane-1,2-dicarboxylate dibromide]
[1]; Rattus norvegicus, iv
  ED50: 0.218 mg/kg
[1]; [5]
  VB (vagal block): 5%
  ΔBP (change in arterial blood pressure): 0%
  ΔH (change in heart rate): 0%
[1]; rat
  RI (recovery index): 0.45 min
  Onset: 0.7 min
[2]; Felis catus, iv
  ED50: 0.135 mg/kg
[2]; [6]
  VB (vagal block): 12%
  ΔBP (change in arterial blood pressure): 0%
  ΔH (change in heart rate): 0%
[2]; cat
  RI (recovery index): 0.5 min
  Onset: 0.95 min
[3]; Sus scrofa, read-out: ED50
  ED50: 0.275 mg/kg
[3]; [7]
  VB (vagal block): 42%
  ΔBP (change in arterial blood pressure): 0%
  ΔH (change in heart rate): 0%
[3]
  RI (recovery index): 0.85 min
  Onset: 0.68 min
Anesthetized monkeys; Primates, read-out: ED50
  ED50: 0.054 mg/kg
Anesthetized monkeys; [7]
  ΔBP (change in arterial blood pressure): 0%
  ΔH (change in heart rate): 0%
Anesthetized monkeys
  RI (recovery index): 0.4 min
  Onset: 0.95 min
rabbits; Oryctolagus cuniculus, read-out: ED50
  ED50: 0.078 mg/kg
rabbits; [7]
  ΔBP (change in arterial blood pressure): 0%
  ΔH (change in heart rate): 0%
rabbits
  RI (recovery index): 0.6 min
  Onset: 0.8 min
dogs; Canis lupus familiaris, intravenous dose causing 50% neuromuscular block, read-out: ED50
  ED50: 0.1 mg/kg
dogs; [7]
  ΔBP (change in arterial blood pressure): −7%
  ΔH (change in heart rate): 10%
dogs; spontaneous recovery, 25-75% neuromuscular response
  RI (recovery index): 0.65 min
dogs; time to 80-85% neuromuscular block
  Onset: 0.9 min

## Bis[N-(4-acetoxy-3,5-dimethoxybenzyl)-6-azabicyclo[3.2.1]octanium-3-yl]glutarate dibromide
[4]; in vivo
  % VB at ED80 nmb (vagal block): 75 (5) %
  BP (change in arterial blood pressure): +21 (2) %
  HR (change in heart rate): 0%
[4]
  ED50: 3050 (193) μg/kg
  RI (recovery index): 1.4 (0.1) min
  Onset: 0.75 (0.05) min

## Bis[N-(3,4-diacetoxybenzyl)-6-azabicyclo[3.2.1]octanium-3-yl]glutarate dibromide
[4]; in vivo
  % VB at ED80 nmb (vagal block): 19 (4) %
  BP (change in arterial blood pressure): 0%
  HR (change in heart rate): 0%
[4]
  ED50: 440 (39) μg/kg
  RI (recovery index): 0.4 (0.05) min
  Onset: 0.55 (0.05) min

## CC(=O)Oc1ccc(C[N+]2(C)C3CCCC2CC(OC(=O)CCCCC(=O)OC2CC4CCCC(C2)[N+]4(C)Cc2ccc(OC(C)=O)c(OC(C)=O)c2)C3)cc1OC(C)=O.[Br-].[Br-] (stereo not shown) [bis[N-(3,4-diacetoxybenzyl)granataninium-3-yl]adipate dibromide]
[1]; rat, in vivo
  VB (vagal block): 5%
  ΔBP (change in arterial blood pressure): 0%
  ΔH (change in heart rate): 0%
[1]; rat, intravenous dose causing 50% neuromuscular block
  ED50: 0.14 mg/kg
[1]; rat
  RI (recovery index): 0.4 min
  Onset: 0.5 min
[2]; cat, intravenous dose causing 50% neuromuscular block
  ED50: 0.4 mg/kg
[2]; cat
  RI (recovery index): 0.5 min
  Onset: 0.7 min
[2]; in vivo
  VB (vagal block): 70%
  ΔBP (change in arterial blood pressure): −40%
  ΔH (change in heart rate): 0%
[3]; in vivo
  VB (vagal block): 51%
  ΔBP (change in arterial blood pressure): 0%
  ΔH (change in heart rate): 0%
[3]
  ED50: 0.14 mg/kg
  RI (recovery index): 0.9 min
  Onset: 0.7 min
Anesthetized monkeys; in vivo
  ΔBP (change in arterial blood pressure): 0%
  ΔH (change in heart rate): 0%
Anesthetized monkeys
  ED50: 0.085 mg/kg
  RI (recovery index): 0.4 min
  Onset: 0.8 min
rabbits; in vivo
  ΔBP (change in arterial blood pressure): 0%
  ΔH (change in heart rate): 0%
rabbits
  ED50: 0.167 mg/kg
  RI (recovery index): 0.5 min
  Onset: 0.68 min

## Bis[4-dimethylaminocyclohexyl]fumarate bis(4-acetoxy-3-methoxybenzyl bromide)
[4]
  ED50: 2138 (128) μg/kg
  RI (recovery index): 0.65 (0.05) min
  Onset: 1.3 (0.05) min

## COc1cc(C[N+](C)(C)C2CCC(OC(=O)CCCC(=O)OC3CCC([N+](C)(C)Cc4ccc(OC(C)=O)c(OC)c4)CC3)CC2)ccc1OC(C)=O.[Br-].[Br-] (stereo not shown) [Bis[4-dimethylaminocyclohexyl]glutarate bis(4-acetoxy-3-methoxybenzyl bromide)]
[4]; [7]
  % VB at ED80 nmb (vagal block): 73 (9) %
  BP (change in arterial blood pressure): −14 (5) %
  HR (change in heart rate): −5 (2) %
[4]
  ED50: 2075 (188) μg/kg
  RI (recovery index): 0.9 (0.05) min
  Onset: 0.84 (0.06) min

## CC(=O)Oc1ccc(C[N+](C)(C)C2CCC(OC(=O)CCCC(=O)OC3CCC([N+](C)(C)Cc4ccc(OC(C)=O)c(OC(C)=O)c4)CC3)CC2)cc1OC(C)=O.[Br-].[Br-] (stereo not shown) [Bis[4-dimethylaminocyclohexyl]glutarate bis(3,4-diacetoxybenzyl bromide)]
[4]; in vivo
  % VB at ED80 nmb (vagal block): 64 (22) %
  BP (change in arterial blood pressure): −13 (6) %
  HR (change in heart rate): −5 (3) %
[4]
  ED50: 700 (122) μg/kg
  RI (recovery index): 0.8 (0.07) min
  Onset: 0.75 (0.05) min

## Bis[N-(4-acetoxy-3-methoxybenzyl)-6-azabicyclo[3.2.1]octanium-3-yl]-glutarate dibromide
[4]; in vivo
  % VB at ED80 nmb (vagal block): 68 (96) %
  BP (change in arterial blood pressure): +12 (5) %
  HR (change in heart rate): 0%
[4]
  ED50: 1425 (161) μg/kg
  RI (recovery index): 0.65 (0.05) min
  Onset: 0.53 (0.04) min

## Bis[N-(3,4-dipropionyloxybenzyl)-6-azabicyclo[3.2.1]octanium-3-yl]glutarate dibromide
[4]; in vivo
  % VB at ED80 nmb (vagal block): 63 (7) %
  BP (change in arterial blood pressure): +8 (2) %
  HR (change in heart rate): 0%
[4]
  ED50: 1002 (174) μg/kg
  RI (recovery index): 0.47 (0.03) min
  Onset: 0.5 (0.03) min

## CC(=O)Oc1ccc(C[N+](C)(C)C2CCC(OC(=O)/C=C/C(=O)OC3CCC([N+](C)(C)Cc4ccc(OC(C)=O)c(OC(C)=O)c4)CC3)CC2)cc1OC(C)=O.[Br-].[Br-] (stereo not shown) [Bis[4-dimethylaminocyclohexyl]fumarate bis(3,4-diacetoxybenzyl bromide)]
[4]; in vivo
  % VB at ED80 nmb (vagal block): 65 (18) %
  BP (change in arterial blood pressure): −4 (3) %
  HR (change in heart rate): +6 (3) %
[4]
  ED50: 2125 (475) μg/kg
  RI (recovery index): 1.5 (0.1) min
  Onset: 1.3 (0.1) min

## Bis[4-dimethylaminocyclohexyl]glutarate bis(benzyl bromide) [reference compound]
[4]
  ED50: 2500 µg/kg
  RI (recovery index): 1.65 (0.1) min
  Onset: 1.6 (0.1) min
